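Following 48 hours of exposure in 96-well plates, responses at five concentrations were used to interpolate endpoints linearly. GI50 marks 50% less growth. TGI is the concentration that stops growth completely.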
What was measured:
Assay in all cases: NCI anticancer screen, dose series, 48 h; in the data active = GI50 below about 0.43 µM; inactive = the rest
[1] = test system: UACC-62 melanoma
[2] = test system: A498 renal
[3] = test system: SK-OV-3 ovarian
[4] = test system: ACHN renal
[5] = test system: NCI-H23 lung
[6] = test system: MDA-MB-231 breast
[7] = test system: SW-620 colon
[8] = test system: SF-295 CNS
[9] = test system: NCI-H226 lung
[10] = test system: TK-10 renal
[11] = test system: COLO 205 colon
[12] = test system: UO-31 renal
[13] = test system: SK-MEL-28 melanoma
[14] = test system: UACC-257 melanoma
[15] = test system: PC-3 prostate
[16] = test system: DU-145 prostate
[17] = test system: SN12C renal
[18] = test system: HCT-116 colon
[19] = test system: U251 CNS
[20] = test system: EKVX NSCLC
[21] = test system: OVCAR-5 ovarian
[22] = test system: SK-MEL-2 melanoma
[23] = test system: MCF7 breast
[24] = test system: HCT-15 colon
[25] = test system: HOP-62 NSCLC
[26] = test system: HS 578T breast
[27] = test system: NCI-H522 lung
[28] = test system: MDA-MB-435
[29] = test system: A549 NSCLC
[30] = test system: MOLT-4 leukemia
[31] = test system: RXF 393 renal
[32] = test system: OVCAR-3 ovarian
[33] = test system: KM12 colon
[34] = test system: IGROV1 ovarian
[35] = test system: 786-0 renal
[36] = test system: CAKI-1 renal
[37] = test system: HCC-2998 colon
[38] = test system: HL-60(TB) leukemia
[39] = test system: BT-549 breast
[40] = test system: HOP-92 NSCLC
[41] = test system: M14 melanoma
[42] = test system: SNB-19 CNS
[43] = test system: NCI/ADR-RES ovarian
[44] = test system: SK-MEL-5 melanoma
[45] = test system: HT29 colon
[46] = test system: OVCAR-8 ovarian
[47] = test system: K-562 leukemia
[48] = test system: LOX IMVI melanoma
[49] = test system: SF-268 CNS
[50] = test system: NCI-H460 lung
[51] = test system: T-47D breast
[52] = test system: MALME-3M melanoma
[53] = test system: SNB-75 CNS
[54] = test system: OVCAR-4 ovarian

NC(N)=N/N=C/c1c(-c2ccc(Cl)c(Cl)c2Cl)nc2sccn12
2.82 µM: TGI [12]
2.73 µM: TGI [11]
2.81 µM: TGI [1]
3.56 µM: TGI [9]
2.7 µM: TGI [10]
3.12 µM: TGI [13] | TGI [16]
3.33 µM: TGI [3]
3.07 µM: TGI [7]
> 100 µM: TGI [4] | TGI [15]
2.65 µM: TGI [5]
2.3 µM: TGI [2]
3.29 µM: TGI [8]
2.47 µM: TGI [6]
3.02 µM: TGI [14]

CC(=O)c1ccc(NCn2nc(-c3ccccc3O)oc2=S)cc1
64.9 µM: TGI [17]
45.5 µM: TGI [48]
49.3 µM: TGI [24]
72.8 µM: TGI [31]
66.2 µM: TGI [37]
99.3 µM: TGI [9]
71.9 µM: TGI [4]
> 100 µM: TGI [18] | TGI [19] | TGI [20] | TGI [21] | TGI [22] | TGI [23] | TGI [1] | TGI [25] | TGI [26] | TGI [27] | TGI [28] | TGI [29] | TGI [5] | TGI [30] | TGI [32] | TGI [33] | TGI [34] | TGI [35] | TGI [36] | TGI [38] | TGI [39] | TGI [40] | TGI [41] | TGI [6] | TGI [7] | TGI [8] | TGI [42] | TGI [43] | TGI [44] | TGI [45] | TGI [10] | TGI [46] | TGI [11] | TGI [47] | TGI [12] | TGI [13] | TGI [14] | TGI [15] | TGI [49] | TGI [50] | TGI [51]
inactive: GI50 [17] 27 µM | GI50 [18] > 100 µM | GI50 [19] 50.8 µM | GI50 [20] > 100 µM | GI50 [21] > 100 µM | GI50 [22] > 100 µM | GI50 [23] > 100 µM | GI50 [1] 35.8 µM | GI50 [24] 23.4 µM | GI50 [25] > 100 µM | GI50 [4] 29.6 µM | GI50 [26] > 100 µM | GI50 [27] > 100 µM | GI50 [28] > 100 µM | GI50 [29] 37.8 µM | GI50 [5] 92.6 µM | GI50 [30] 0.88 µM | GI50 [31] 24.6 µM | GI50 [32] > 100 µM | GI50 [33] > 100 µM | GI50 [34] > 100 µM | GI50 [35] 74.1 µM | GI50 [36] > 100 µM | GI50 [37] 27.8 µM | GI50 [38] > 100 µM | GI50 [39] 56.2 µM | GI50 [40] 42.8 µM | GI50 [41] > 100 µM | GI50 [6] 37.6 µM | GI50 [7] 29.8 µM | GI50 [8] > 100 µM | GI50 [42] > 100 µM | GI50 [43] > 100 µM | GI50 [44] 55.6 µM | GI50 [45] 47 µM | GI50 [9] 27.4 µM | GI50 [10] 67.1 µM | GI50 [46] > 100 µM | GI50 [11] 43.4 µM | GI50 [47] > 100 µM | GI50 [12] > 100 µM | GI50 [13] > 100 µM | GI50 [48] 22.7 µM | GI50 [14] > 100 µM | GI50 [15] 46.4 µM | GI50 [49] > 100 µM | GI50 [50] 39.5 µM | GI50 [51] 85.9 µM

Cc1ccc(NCCN(C)CC(C)O)c2c(=O)c3ccc(Cl)cc3sc12 (stereo unspecified)
inactive: GI50 [17] 4.42 µM | GI50 [19] 3.68 µM | GI50 [21] 3 µM | GI50 [23] 2.18 µM | GI50 [1] 1.85 µM | GI50 [2] 2.31 µM | GI50 [3] 3.19 µM | GI50 [52] 1.78 µM | GI50 [26] 2.83 µM | GI50 [29] 4.08 µM | GI50 [32] 4.13 µM | GI50 [34] 4.79 µM | GI50 [39] 5.14 µM | GI50 [41] 1.77 µM | GI50 [53] 6.65 µM | GI50 [42] 4.62 µM | GI50 [43] 4.68 µM | GI50 [44] 1.65 µM | GI50 [9] 5.45 µM | GI50 [10] 5.08 µM | GI50 [46] 7.16 µM | GI50 [13] 1.75 µM | GI50 [14] 1.96 µM | GI50 [15] 2.96 µM | GI50 [54] 8.47 µM | GI50 [16] 3.75 µM | GI50 [49] 6.47 µM
3.01 µM: TGI [44]
3.54 µM: TGI [52]
3.31 µM: TGI [13]
3.38 µM: TGI [41]
8.37 µM: TGI [2]
3.57 µM: TGI [14]
> 100 µM: TGI [17] | TGI [19] | TGI [21] | TGI [23] | TGI [3] | TGI [26] | TGI [29] | TGI [32] | TGI [34] | TGI [39] | TGI [53] | TGI [42] | TGI [43] | TGI [9] | TGI [10] | TGI [46] | TGI [15] | TGI [16] | TGI [49]
3.48 µM: TGI [1]
81.8 µM: TGI [54]

From PubChem BioAssay (NCI)
